Experimental data: paper PMC8145110, “Design, Synthesis, and Antibacterial Screening of Some Novel Heteroaryl-Based Ciprofloxacin Derivatives as DNA Gyrase and Topoisomerase IV Inhibitors” (Pharmaceuticals, 2021)
Converted amounts (≈) assume the structure as drawn.

Legend:
S. aureus = experiment: MIC, two-fold serial dilution, S. aureus; format: cell-based, Staphylococcus aureus; conditions: for MIC: Staphylococcus aureus, read-out: Minimum Inhibitory Concentration (MIC), S. aureus
Method: (§1) Table 2, using the reference drug ciprofloxacin, was presented with the MICs (minimal inhibitory concentrations) of these compounds against tested bacteria. […] The nature of aromatic substitution in the oxadiazole moiety tends to be correlated with higher antibacterial effects and the activity increased with (Ar) in the order of 2-pyridyl ≥ 3-pyridyl > 4-pyridyl > 2-Cl-Ph > 2-naphthyl.
(§2) On 96-well microtiter plates and […] of fresh bacterial culture of a single McFarland unit overnight, a double serial dilution of each compound […] in sterile standard saline was prepared for every single source well. Ciprofloxacin antibiotic (5 mg/mL^−1) and normal saline were included as standard references in each assay (see Appendix A).
(§3) In 96-well microtiter plates and […] of fresh bacterial culture of a single McFarland unit overnight, a double serial dilution of each compound […] in sterile standard saline was prepared for every single source well. Ciprofloxacin antibiotic (5 mg/mL^−1) and normal saline were included as standard reference in each assay. The plates were incubated at 37 °C overnight. As an indicator of bacterial growth, […] of p-iodonitrotetrazolium violet (INT) was added to each well and incubated at 37 °C for 30 min. […] The colorless tetrazolidium salt acts as an electron accepter and is reduced to a red colored formazan product by biological activity organisms. Where bacterial growth was inhibited, the solution in the well remained clear after incubation with INT.

B. subtilis = experiment: MIC, two-fold serial dilution, B. subtilis; format: cell-based; conditions: Bacillus subtilis; read-out: Minimum Inhibitory Concentration (MIC), B. subtilis
Method: as §1, §2, §3

E. coli = experiment: MIC, two-fold serial dilution, E. coli; format: cell-based; conditions: Escherichia coli; read-out: Minimum Inhibitory Concentration (MIC), E. coli
Method: as §1, §2, §3

P. aeruginosa = experiment: MIC, two-fold serial dilution, P. aeruginosa; format: cell-based; conditions: Pseudomonas aeruginosa; read-out: Minimum Inhibitory Concentration (MIC), P. aeruginosa
Method: as §1, §2, §3

[1] = Cell viability assay (MTT); format: cell-based; design: dose or concentration left out as unconfirmed; conditions: human, MCF-10A mammary gland epithelial cells, four days
Method: A human mammary gland epithelial cell line (MCF-10A) was used to conduct a cell viability assay. Compounds 2–6 were incubated with MCF-10A cells for four days, and the viability of the cells was determined using the 3-(4,5-dimethylthiazol-2-yl)-2,5-diphenyltetrazolium bromide (MTT) assay. All compounds had no cytotoxic effects, and the viability of the cells was greater than 85% for most of the compounds examined […], as shown in Table 4.
MTT Assay was performed to investigate the effect of compounds 2–6 on the viability of mammary epithelial cells (MCF-10A) (see Appendix A).

E. coli DNA gyrase = biological target: T1, E. coli DNA gyrase (Escherichia coli, UniProt P0AES4+P0AES6); experiment: E. coli DNA gyrase assay; format: biochemical
T1 construct: purchased Inspiralis
Method: (§4) IC50 assay determination was carried out in accordance with the procedures previously stated (see Appendix A).
(§5) Inhibitory activities were determined in an assay from Inspiralis on streptavidin-coated 96-well microtiter plates from Thermo scientific Pierce. […] After washing off the unbound oligonucleotide, the enzyme test was performed. […] After that, the TF buffer (50 mM NaOAc with pH 5.0, 50 mM NaCl and 50 mM MgCl2) was added to terminate the enzymatic reaction. After additional incubation for 30 min at rt, during which biotin-oligonucleotide-plasmid triplex was 19 formed, the unbound plasmid was washed off using TF buffer and SybrGOLD in T10 buffer (10 mM Tris HCl with pH 8.0 and 1 mM EDTA) was added. […] Initial screening was done at 100 or 10 μM concentration of inhibitors. […] GraphPad Prism software was used to calculate the IC50 values. The result is given as the average value of three independent measurements. […] Determination of inhibitory activities on E. coli and S. aureus Topoisomerase IV IC50 values were determined in an assay from Inspiralis on streptavidin-coated 96-well microtiter plates from Thermo scientific Pierce. […] After washing off the unbound oligonucleotide, the enzyme test was performed. The reaction volume of 30 μL in buffer (40 mM HEPES KOH with pH 7.6, 100 mM potassium glutamate, 10 mM magnesium acetate, 10 mM DTT, 1 mM ATP, 0.05 mg/mL albumin) contained 1.5 U of topoisomerase IV from E. coli or S. aureus, 0.75 μg of pNO1 supercoiled plasmid, and 3 μL solution of the inhibitor in DMSO (10%) and Tween 20 (0.008%). […] After additional incubation for 30 min at rt, during which triplex (biotin-oligonucleotide-plasmid) was formed, the unbound plasmid was washed off using TF buffer and SybrGOLD in T10 buffer (10 mM Tris HCl with pH 8.0 and 1 mM EDTA) was added. […] Initial screening was done at 100 or 10 μM concentration of inhibitors. […] GraphPad Prism software was used to calculate the IC50 values. The result is given as the average value of three independent measurements.

E. coli topoisomerase IV = biological target: T2, E. coli topoisomerase IV (Escherichia coli, UniProt P0AFI2+P20083); experiment: E. coli topoisomerase IV assay; format: biochemical; conditions: for remaining activity at 1 µM: read-out: RA (%), residual activity of E. coli Topo IV
T2 construct: purchased Inspiralis
Method: as §4, §5

[2] = test system: Candida albicans (ATCC 7102); experiment: Kirby-Bauer disc diffusion, C. albicans; format: cell-based; conditions: % of fluconazole
Method: Furthermore, using fluconazole as a reference drug, 1–21 were tested in vitro for antifungal activity against A. flavus and C. albicans (Table 1).
(§6) The cultures used were collected from the Cairo University’s Microanalytical Centre, Faculty of Science. An updated Kirby-Bauer disc diffusion method was applied for antimicrobial activities of the tests 1–21 compounds [32, 33, 34, 35]. See Appendix A.
The cultures used were collected from the Cairo University’s Microanalytical Centre, Faculty of Science. An updated Kirby-Bauer disc diffusion method was applied for the antimicrobial activities of the tests for compounds 1–21 [28]. […] Plates inoculated with filamentous fungi as Aspergillus flavus were incubated at 25 °C for 48 h; Gram positive bacteria as Staphylococcus aureus (ATCC 12600, Microanalytical center, Cairo, Egypt), Bacillus subtilis (ATCC 6051); Gram negative bacteria as Escherichia coli (ATCC 11775), Pseudomonas aeuroginosa (ATCC 10145) were incubated at 35–37 °C for 24–48 h and yeast as Candida albicans (ATCC 7102) was incubated at 30 °C for 24–48 h and, then the diameters of the inhibition zones were measured in millimeters. […] For the disc diffusion, the zone diameters were measured with slipping calipers of the National Committee for Clinical Laboratory Standards, and the results are given in Table 1. […]

[3] = test system: Staphylococcus aureus (ATCC 12600); experiment: Kirby-Bauer disc diffusion, S. aureus; format: cell-based; conditions: % of ciprofloxacin
Method: (§7) An updated Kirby-Bauer disc diffusion method was used to assess the antimicrobial activity of the tested samples [32, 33, 34, 35]. Using ciprofloxacin as a reference drug, synthetic compounds 1–21 were tested in vitro for antibacterial activity against S. aureus and B. subtilis as Gram-positive strains and E. coli and P. aeruginosa as Gram-negative strains. […]. […].
as §6
The cultures used were collected from the Cairo University’s Microanalytical Centre, Faculty of Science. An updated Kirby-Bauer disc diffusion method was applied for the antimicrobial activities of the tests for compounds 1–21 [28]. Shortly after, 10 mL of fresh medium was grown to 100 μL bacteria/food until a count of 10^8 cells/mL or 10^5 cells/mL was achieved. One hundred μL microbial suspension was spread over agar plates that suited the broth in which it was held. The selected colonies of each organism that may play a pathogenic function should be from the primary agar plates and tested by the disc diffusion method for susceptibility. Plates inoculated with filamentous fungi as Aspergillus flavus were incubated at 25 °C for 48 h; Gram positive bacteria as Staphylococcus aureus (ATCC 12600, Microanalytical center, Cairo, Egypt), Bacillus subtilis (ATCC 6051); Gram negative bacteria as Escherichia coli (ATCC 11775), Pseudomonas aeuroginosa (ATCC 10145) were incubated at 35–37 °C for 24–48 h and yeast as Candida albicans (ATCC 7102) was incubated at 30 °C for 24–48 h and, then the diameters of the inhibition zones were measured in millimeters. Standard discs of ciprofloxacin (antibacterial agent), fluconazole (antifungal agent) served as positive controls for antimicrobial activity, but filter discs impregnated with 10 µL of solvent (distilled water, chloroform, DMSO) were used as a negative control. Blank paper disks (Schleicher and Schuell, Cytiva, Spain) with a diameter of 8.0 mm were impregnated with 10 µL of tested concentration of the stock solutions. When a filter paper disc impregnated with a tested chemical is placed on agar, the chemical will diffuse from the disc into the agar. This diffusion will place the chemical in the agar only around the disc. The solubility of the chemical and its molecular size will determine the size of the area of chemical infiltration around the disc. […] For the disc diffusion, the zone diameters were measured with slipping calipers of the National Committee for Clinical Laboratory Standards, and the results are given in Table 1. […]

[4] = test system: Escherichia coli (ATCC 11775); experiment: Kirby-Bauer disc diffusion, E. coli; format: cell-based; conditions: % of ciprofloxacin
Method: as §7, §6
The cultures used were collected from the Cairo University’s Microanalytical Centre, Faculty of Science. An updated Kirby-Bauer disc diffusion method was applied for the antimicrobial activities of the tests for compounds 1–21 [28]. Shortly after, 10 mL of fresh medium was grown to 100 μL bacteria/food until a count of 10^8 cells/mL or 10^5 cells/mL was achieved. One hundred μL microbial suspension was spread over agar plates that suited the broth in which it was held. The selected colonies of each organism that may play a pathogenic function should be from the primary agar plates and tested by the disc diffusion method for susceptibility. Plates inoculated with filamentous fungi as Aspergillus flavus were incubated at 25 °C for 48 h; Gram positive bacteria as Staphylococcus aureus (ATCC 12600, Microanalytical center, Cairo, Egypt), Bacillus subtilis (ATCC 6051); Gram negative bacteria as Escherichia coli (ATCC 11775), Pseudomonas aeuroginosa (ATCC 10145) were incubated at 35–37 °C for 24–48 h and yeast as Candida albicans (ATCC 7102) was incubated at 30 °C for 24–48 h and, then the diameters of the inhibition zones were measured in millimeters. […] For the disc diffusion, the zone diameters were measured with slipping calipers of the National Committee for Clinical Laboratory Standards, and the results are given in Table 1. […]

T2 sequence (P0AFI2 whole entry): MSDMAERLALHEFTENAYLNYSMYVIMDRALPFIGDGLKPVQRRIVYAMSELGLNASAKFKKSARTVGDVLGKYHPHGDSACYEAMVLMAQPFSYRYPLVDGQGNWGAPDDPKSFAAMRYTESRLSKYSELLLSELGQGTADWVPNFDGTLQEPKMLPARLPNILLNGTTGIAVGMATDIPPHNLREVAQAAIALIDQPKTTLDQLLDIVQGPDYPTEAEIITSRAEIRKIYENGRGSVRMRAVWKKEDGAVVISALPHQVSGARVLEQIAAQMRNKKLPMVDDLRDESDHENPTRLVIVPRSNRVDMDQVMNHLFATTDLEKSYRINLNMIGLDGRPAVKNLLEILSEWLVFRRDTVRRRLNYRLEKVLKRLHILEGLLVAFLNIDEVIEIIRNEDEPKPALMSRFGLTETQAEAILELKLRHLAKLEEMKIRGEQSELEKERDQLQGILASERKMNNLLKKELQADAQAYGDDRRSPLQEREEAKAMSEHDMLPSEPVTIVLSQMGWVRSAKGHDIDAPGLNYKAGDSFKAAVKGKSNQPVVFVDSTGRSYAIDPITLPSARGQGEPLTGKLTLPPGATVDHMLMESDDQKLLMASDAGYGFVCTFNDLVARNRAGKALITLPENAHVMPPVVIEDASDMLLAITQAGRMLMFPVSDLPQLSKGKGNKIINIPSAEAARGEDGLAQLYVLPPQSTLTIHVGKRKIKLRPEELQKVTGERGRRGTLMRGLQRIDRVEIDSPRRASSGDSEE
T2 sequence (P20083 whole entry): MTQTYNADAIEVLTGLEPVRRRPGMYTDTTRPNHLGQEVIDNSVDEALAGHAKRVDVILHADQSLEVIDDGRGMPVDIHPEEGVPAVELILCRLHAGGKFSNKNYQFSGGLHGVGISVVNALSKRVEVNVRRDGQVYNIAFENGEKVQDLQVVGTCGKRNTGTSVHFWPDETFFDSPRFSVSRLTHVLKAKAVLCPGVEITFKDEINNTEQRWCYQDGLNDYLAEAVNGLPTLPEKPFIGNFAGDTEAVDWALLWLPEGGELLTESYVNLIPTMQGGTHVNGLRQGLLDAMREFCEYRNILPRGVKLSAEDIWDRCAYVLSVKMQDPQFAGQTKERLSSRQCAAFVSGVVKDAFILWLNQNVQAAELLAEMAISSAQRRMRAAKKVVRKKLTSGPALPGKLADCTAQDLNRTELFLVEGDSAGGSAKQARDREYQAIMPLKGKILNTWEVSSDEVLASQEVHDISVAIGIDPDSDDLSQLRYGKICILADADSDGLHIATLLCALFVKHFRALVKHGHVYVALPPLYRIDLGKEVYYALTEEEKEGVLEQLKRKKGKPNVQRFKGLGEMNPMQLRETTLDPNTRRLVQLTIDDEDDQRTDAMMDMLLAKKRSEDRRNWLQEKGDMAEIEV
T1 sequence (P0AES4 whole entry, one chain of several): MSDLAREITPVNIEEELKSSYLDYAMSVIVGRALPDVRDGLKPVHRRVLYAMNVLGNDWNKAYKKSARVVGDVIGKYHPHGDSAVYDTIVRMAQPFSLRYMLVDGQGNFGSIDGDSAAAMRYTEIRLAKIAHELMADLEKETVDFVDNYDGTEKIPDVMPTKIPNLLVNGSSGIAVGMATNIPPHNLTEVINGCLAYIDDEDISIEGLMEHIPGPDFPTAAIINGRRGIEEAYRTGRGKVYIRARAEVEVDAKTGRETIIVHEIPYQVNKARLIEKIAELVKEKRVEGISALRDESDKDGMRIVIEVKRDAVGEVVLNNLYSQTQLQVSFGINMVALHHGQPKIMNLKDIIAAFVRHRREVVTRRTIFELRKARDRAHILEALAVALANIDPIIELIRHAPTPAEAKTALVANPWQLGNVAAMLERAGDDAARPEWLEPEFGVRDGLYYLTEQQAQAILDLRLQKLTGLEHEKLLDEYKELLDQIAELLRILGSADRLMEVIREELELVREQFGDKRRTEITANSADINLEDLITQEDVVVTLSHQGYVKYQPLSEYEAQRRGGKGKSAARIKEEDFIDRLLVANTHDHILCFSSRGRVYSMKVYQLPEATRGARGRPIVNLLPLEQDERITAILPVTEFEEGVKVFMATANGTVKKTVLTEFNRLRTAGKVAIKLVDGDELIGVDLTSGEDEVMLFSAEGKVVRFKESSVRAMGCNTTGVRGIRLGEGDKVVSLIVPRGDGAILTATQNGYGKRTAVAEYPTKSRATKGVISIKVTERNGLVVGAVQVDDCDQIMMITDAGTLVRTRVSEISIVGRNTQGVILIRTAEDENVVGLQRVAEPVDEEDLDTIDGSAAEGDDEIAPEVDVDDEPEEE

| Compound | MIC, S. aureus (S. aureus) | MIC (S. aureus) | MIC (B. subtilis) | MIC (E. coli) | MIC (P. aeruginosa) | melting point | viability at 4 days [1] | remaining activity at 1 µM (E. coli DNA gyrase; read-out: RA (%), residual activity of E. coli DNA Gyrase) | remaining activity at 1 µM (E. coli topoisomerase IV) | IC50 (E. coli DNA gyrase) | antifungal activity against C. albicans relative to fluconazole [2] | antibacterial activity relative to ciprofloxacin, S. aureus [3] | antibacterial activity relative to ciprofloxacin, E. coli [4] | IC50 (E. coli topoisomerase IV) |
| --- | --- | --- | --- | --- | --- | --- | --- | --- | --- | --- | --- | --- | --- | --- |
| O=C(O)c1cn(C2CC2)c2cc(N3CCNCC3)c(F)cc2c1=O [Ciprofloxacin] | 0.03 mg/L (≈ 0.0905 µM) | 0.03 mg/L (≈ 0.0905 µM) | 0.01 mg/L (≈ 0.0302 µM) | 0.06 mg/L (≈ 0.181 µM) | 0.06 mg/L (≈ 0.181 µM) |  |  |  |  |  |  |  |  |  |
| O=C(O)c1cn(C2CC2)c2cc(N3CCN(Cn4nc(-c5ccccc5Cl)oc4=S)CC3)c(F)cc2c1=O [Compound 2, 7-{4-[5-(2-Chloro-phenyl)-2-thioxo-[1,3,4]oxadiazol-3-ylmethyl]-piperazin-1-yl}-1-cyclopropyl-6-fluoro-4-oxo-1,4-dihydro-quinoline-3-carboxylic acid] | 0.062 mg/L (≈ 0.112 µM) | 0.162 mg/L (≈ 0.291 µM) | 0.125 mg/L (≈ 0.225 µM) | 0.125 mg/L (≈ 0.225 µM) | 0.125 mg/L (≈ 0.225 µM) | 226 °C | 87% | 57% | 89% |  |  |  |  |  |
| O=C(O)c1cn(C2CC2)c2cc(N3CCN(Cn4nc(-c5ccc6ccccc6c5)oc4=S)CC3)c(F)cc2c1=O [Compound 3, 1-Cyclopropyl-6-fluoro-7-[4-(5-naphthalen-2-yl-2-thioxo-[1,3,4]oxadiazol-3-ylmethyl)-piperazin-1-yl]-4-oxo-1,4-dihydro-quinoline-3-carboxylic acid] |  | 0.125 mg/L (≈ 0.219 µM) | 0.125 mg/L (≈ 0.219 µM) | 0.125 mg/L (≈ 0.219 µM) | 0.05 mg/L (≈ 0.0875 µM) | 244 °C | 85% |  | 58% | 0.086 ± 0.009 µM | 33% |  |  |  |
| O=C(O)c1cn(C2CC2)c2cc(N3CCN(Cn4nc(-c5ccccn5)oc4=S)CC3)c(F)cc2c1=O [Compound 4, 1-Cyclopropyl-6-fluoro-4-oxo-7-[4-(5-pyridin-2-yl-2-thioxo-[1,3,4]oxadiazol-3-yl-methyl)-piperazin-1-yl]-1,4-dihydro-quinoline-3-carboxylic acid] |  | 0.035 mg/L (≈ 0.067 µM) | 0.125 mg/L (≈ 0.239 µM) | 0.062 mg/L (≈ 0.119 µM) | 0.062 mg/L (≈ 0.119 µM) | 218 °C | 89% |  |  | 0.042 ± 0.007 µM |  | equipotent | equipotent | 1.47 ± 0.2 µM |
